Legend:
[1] = biological target: T1, Cholecystokinin receptor type A (Homo sapiens, UniProt P32238)
T1 sequence (P32238 whole entry): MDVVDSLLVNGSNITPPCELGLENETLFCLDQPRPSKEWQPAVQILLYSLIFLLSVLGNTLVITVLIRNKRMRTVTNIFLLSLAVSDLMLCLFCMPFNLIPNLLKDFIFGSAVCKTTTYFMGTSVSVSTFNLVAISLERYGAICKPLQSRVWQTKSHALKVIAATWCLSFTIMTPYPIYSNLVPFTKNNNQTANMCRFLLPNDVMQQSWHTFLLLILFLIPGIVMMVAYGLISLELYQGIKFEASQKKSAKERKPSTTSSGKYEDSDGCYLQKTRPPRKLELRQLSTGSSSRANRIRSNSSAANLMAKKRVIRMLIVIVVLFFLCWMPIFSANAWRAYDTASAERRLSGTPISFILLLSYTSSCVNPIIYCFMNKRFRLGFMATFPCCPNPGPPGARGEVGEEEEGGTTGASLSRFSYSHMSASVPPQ

[2] = biological target: cGMP-inhibited 3',5'-cyclic phosphodiesterase 3A (Homo sapiens, UniProt Q14432); format: functional
Chain of cGMP-inhibited 3',5'-cyclic phosphodiesterase 3A (Q14432 whole entry): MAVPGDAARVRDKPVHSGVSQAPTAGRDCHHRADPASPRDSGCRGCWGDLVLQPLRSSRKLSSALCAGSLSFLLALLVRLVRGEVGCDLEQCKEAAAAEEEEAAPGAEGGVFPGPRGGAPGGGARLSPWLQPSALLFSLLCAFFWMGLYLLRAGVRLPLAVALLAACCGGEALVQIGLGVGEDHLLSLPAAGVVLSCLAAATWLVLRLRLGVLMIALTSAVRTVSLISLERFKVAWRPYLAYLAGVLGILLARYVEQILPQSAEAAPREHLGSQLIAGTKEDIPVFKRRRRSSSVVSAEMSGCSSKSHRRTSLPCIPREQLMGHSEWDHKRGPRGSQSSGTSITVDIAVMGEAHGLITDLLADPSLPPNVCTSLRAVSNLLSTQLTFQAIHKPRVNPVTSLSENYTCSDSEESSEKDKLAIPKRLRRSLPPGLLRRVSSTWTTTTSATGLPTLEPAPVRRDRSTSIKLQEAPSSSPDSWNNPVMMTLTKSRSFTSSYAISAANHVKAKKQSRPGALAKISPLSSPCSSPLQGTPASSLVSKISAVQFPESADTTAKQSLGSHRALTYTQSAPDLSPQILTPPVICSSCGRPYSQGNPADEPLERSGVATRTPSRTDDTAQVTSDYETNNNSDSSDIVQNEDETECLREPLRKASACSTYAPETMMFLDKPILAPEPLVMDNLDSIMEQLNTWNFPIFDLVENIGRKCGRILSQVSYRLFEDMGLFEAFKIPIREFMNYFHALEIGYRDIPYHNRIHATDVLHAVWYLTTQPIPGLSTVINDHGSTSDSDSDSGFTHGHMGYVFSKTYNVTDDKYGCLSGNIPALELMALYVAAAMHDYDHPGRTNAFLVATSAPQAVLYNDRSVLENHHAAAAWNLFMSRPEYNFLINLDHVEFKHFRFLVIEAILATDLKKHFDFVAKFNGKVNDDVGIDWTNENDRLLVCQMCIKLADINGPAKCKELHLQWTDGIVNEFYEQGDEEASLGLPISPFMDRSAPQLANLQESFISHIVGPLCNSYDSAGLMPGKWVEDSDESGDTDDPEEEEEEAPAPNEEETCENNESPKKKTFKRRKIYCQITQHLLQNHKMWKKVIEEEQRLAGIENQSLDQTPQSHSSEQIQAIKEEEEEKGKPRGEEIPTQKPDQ

[3] = biological target: T2, 5-hydroxytryptamine receptor 3A (Homo sapiens, UniProt P46098); format: functional
T2 sequence (P46098 whole entry): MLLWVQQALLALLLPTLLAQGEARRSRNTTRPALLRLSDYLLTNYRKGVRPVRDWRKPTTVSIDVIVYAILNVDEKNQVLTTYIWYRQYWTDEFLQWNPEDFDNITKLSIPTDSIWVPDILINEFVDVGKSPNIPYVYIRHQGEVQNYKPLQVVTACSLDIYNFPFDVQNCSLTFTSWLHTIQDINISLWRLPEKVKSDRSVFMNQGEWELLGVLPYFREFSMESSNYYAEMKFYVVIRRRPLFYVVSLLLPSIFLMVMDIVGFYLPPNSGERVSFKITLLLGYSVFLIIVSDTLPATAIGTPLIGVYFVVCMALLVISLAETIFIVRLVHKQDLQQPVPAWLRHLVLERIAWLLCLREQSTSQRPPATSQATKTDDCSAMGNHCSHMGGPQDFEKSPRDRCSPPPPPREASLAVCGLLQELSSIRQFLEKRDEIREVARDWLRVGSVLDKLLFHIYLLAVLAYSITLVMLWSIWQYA

[4] = biological target: D(3) dopamine receptor (Homo sapiens, UniProt P35462)
Chain of D(3) dopamine receptor (P35462 whole entry): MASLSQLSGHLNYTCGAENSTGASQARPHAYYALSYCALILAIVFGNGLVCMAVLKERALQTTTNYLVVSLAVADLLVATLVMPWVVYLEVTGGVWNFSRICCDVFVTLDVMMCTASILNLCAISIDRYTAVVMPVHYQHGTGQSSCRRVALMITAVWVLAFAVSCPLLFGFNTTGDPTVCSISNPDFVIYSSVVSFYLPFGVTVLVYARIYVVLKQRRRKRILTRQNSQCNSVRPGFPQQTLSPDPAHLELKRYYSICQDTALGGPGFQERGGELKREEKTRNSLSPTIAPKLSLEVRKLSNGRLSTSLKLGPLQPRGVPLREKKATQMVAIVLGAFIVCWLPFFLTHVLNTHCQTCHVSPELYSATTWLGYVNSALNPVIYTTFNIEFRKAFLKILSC

[5] = biological target: Motilin receptor (Homo sapiens, UniProt O43193)
Chain of Motilin receptor (O43193 whole entry): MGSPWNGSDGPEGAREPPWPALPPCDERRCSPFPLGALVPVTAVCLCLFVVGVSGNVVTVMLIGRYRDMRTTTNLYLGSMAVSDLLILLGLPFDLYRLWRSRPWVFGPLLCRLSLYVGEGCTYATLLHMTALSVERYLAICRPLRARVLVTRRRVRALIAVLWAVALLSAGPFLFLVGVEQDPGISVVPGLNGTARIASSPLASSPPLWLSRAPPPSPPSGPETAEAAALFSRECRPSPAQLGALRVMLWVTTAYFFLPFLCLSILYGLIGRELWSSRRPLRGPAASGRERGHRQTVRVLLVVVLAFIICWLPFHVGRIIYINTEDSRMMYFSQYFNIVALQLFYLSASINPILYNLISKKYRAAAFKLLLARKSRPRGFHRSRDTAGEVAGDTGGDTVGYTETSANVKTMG

[6] = biological target: T3, 5-hydroxytryptamine receptor 2C (Homo sapiens, UniProt P28335)
T3 sequence (P28335 whole entry): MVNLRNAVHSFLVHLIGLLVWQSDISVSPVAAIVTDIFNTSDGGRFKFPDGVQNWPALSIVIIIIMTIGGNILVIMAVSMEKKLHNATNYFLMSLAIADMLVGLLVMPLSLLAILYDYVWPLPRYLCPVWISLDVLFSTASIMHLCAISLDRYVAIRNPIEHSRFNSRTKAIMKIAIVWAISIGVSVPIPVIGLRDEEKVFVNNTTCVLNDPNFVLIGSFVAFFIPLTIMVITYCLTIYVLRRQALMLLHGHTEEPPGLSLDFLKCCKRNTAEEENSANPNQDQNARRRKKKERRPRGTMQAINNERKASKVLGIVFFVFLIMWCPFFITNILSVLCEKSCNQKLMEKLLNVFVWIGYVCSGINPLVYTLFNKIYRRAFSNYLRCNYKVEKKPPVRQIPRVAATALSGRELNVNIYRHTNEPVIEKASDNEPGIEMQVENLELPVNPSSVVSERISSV

[7] = biological target: 5-hydroxytryptamine receptor 2B (Homo sapiens, UniProt P41595); format: functional, cell-based
Chain of 5-hydroxytryptamine receptor 2B (P41595 whole entry): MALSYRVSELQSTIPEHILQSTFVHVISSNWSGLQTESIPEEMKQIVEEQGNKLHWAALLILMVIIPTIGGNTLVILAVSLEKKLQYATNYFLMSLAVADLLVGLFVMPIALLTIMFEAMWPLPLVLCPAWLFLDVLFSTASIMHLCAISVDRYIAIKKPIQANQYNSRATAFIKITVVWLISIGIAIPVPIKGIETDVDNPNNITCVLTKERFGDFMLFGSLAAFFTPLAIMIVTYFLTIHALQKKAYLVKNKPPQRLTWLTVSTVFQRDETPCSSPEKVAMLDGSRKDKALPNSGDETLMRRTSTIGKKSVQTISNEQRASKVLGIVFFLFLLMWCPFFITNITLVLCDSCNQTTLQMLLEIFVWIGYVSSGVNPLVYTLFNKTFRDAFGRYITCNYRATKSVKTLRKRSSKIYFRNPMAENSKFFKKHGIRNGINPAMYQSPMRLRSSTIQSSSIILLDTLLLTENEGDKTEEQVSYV

[8] = biological target: Sodium-dependent noradrenaline transporter (Homo sapiens, UniProt P23975)
Chain of Sodium-dependent noradrenaline transporter (P23975 whole entry): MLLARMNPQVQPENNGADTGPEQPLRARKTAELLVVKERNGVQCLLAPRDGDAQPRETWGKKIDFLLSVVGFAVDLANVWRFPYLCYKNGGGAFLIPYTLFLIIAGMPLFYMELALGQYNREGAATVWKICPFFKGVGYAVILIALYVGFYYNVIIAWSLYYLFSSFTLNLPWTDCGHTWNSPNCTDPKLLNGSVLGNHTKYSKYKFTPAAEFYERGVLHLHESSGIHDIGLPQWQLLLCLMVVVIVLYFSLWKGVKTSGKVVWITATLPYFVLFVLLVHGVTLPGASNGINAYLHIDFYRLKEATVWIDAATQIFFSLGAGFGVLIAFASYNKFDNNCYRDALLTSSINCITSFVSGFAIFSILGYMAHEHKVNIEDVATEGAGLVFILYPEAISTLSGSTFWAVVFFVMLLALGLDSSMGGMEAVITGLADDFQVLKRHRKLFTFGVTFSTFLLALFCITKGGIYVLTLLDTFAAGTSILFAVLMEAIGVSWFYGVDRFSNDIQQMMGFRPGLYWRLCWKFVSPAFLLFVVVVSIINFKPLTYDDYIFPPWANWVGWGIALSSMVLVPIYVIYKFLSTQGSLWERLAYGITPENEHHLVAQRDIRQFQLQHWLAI

[9] = biological target: T4, Alpha-2A adrenergic receptor (Homo sapiens, UniProt P08913); format: functional, cell-based
T4 sequence (P08913 whole entry): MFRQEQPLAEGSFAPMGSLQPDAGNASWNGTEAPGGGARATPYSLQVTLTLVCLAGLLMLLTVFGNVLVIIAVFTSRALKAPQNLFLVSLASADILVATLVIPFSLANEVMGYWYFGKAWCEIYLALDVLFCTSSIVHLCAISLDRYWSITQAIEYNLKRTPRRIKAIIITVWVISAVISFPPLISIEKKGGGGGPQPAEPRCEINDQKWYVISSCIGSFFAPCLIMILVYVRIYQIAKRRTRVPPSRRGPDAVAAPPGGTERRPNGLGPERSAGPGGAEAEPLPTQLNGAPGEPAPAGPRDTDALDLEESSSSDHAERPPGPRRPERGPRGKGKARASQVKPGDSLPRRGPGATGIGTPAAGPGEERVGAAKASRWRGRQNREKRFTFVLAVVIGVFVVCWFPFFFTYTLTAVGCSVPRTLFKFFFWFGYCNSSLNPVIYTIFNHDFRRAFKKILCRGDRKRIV

[10] = biological target: D(1A) dopamine receptor (Homo sapiens, UniProt P21728); format: functional, cell-based
Chain of D(1A) dopamine receptor (P21728 whole entry): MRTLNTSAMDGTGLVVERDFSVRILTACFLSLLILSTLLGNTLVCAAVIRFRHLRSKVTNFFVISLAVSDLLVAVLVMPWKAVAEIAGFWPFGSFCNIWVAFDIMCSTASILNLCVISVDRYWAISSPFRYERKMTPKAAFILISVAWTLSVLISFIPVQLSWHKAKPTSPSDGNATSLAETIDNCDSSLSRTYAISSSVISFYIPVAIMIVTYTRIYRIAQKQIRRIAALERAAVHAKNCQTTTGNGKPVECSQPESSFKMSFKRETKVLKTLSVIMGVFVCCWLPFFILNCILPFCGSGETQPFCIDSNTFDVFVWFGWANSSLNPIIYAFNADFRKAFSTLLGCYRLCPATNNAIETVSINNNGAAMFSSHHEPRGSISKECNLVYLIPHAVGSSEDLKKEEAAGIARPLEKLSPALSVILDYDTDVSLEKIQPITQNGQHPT

[11] = biological target: 3',5'-cyclic-AMP phosphodiesterase 4D (Homo sapiens, UniProt Q08499); format: functional
Chain of 3',5'-cyclic-AMP phosphodiesterase 4D (Q08499 whole entry): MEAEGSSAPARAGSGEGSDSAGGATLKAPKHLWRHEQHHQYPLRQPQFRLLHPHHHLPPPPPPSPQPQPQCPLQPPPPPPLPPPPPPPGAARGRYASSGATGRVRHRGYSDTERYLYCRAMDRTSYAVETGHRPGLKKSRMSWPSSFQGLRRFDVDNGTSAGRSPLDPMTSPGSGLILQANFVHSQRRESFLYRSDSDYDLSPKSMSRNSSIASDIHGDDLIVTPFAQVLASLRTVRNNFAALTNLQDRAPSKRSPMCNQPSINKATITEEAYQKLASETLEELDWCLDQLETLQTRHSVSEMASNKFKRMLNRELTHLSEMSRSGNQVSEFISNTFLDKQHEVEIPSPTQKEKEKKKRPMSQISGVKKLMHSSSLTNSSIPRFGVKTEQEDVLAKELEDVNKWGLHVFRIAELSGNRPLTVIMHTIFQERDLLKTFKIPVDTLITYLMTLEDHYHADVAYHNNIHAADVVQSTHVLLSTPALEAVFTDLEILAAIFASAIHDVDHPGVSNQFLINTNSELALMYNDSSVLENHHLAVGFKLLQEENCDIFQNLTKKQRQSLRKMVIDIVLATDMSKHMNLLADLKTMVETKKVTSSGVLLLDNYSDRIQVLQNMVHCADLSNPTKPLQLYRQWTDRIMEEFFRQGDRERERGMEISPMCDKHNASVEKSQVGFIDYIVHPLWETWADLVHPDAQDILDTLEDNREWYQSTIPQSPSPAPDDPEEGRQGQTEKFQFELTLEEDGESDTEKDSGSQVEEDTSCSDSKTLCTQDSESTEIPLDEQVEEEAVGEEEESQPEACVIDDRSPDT

[12] = biological target: T5, Amine oxidase [flavin-containing] A (Homo sapiens, UniProt P21397); format: functional
T5 sequence (P21397 whole entry): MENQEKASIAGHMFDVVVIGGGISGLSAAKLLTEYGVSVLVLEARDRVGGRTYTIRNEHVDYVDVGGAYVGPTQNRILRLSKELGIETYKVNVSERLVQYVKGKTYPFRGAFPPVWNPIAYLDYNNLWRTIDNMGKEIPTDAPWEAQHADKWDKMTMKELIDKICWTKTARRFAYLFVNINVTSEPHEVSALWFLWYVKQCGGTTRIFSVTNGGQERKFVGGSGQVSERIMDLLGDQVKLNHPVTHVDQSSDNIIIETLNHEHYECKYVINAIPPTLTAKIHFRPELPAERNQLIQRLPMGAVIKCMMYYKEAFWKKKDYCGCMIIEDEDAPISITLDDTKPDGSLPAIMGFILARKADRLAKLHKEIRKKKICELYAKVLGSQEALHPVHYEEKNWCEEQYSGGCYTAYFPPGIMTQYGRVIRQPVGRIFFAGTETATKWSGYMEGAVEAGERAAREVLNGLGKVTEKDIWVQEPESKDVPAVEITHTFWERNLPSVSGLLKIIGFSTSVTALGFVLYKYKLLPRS

[13] = biological target: Melanocortin receptor 3 (Homo sapiens, UniProt P41968)
Chain of Melanocortin receptor 3 (P41968 whole entry): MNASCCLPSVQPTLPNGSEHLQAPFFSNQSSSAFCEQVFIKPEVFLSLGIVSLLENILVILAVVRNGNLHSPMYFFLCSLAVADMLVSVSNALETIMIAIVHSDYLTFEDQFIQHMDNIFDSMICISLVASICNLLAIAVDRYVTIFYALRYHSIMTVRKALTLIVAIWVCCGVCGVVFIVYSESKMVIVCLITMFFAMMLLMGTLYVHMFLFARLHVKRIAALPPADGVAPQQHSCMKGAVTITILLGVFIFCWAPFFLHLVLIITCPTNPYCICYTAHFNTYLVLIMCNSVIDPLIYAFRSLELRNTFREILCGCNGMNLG
Also: assay procedure not described here.

| SMILES | AC50 [1] [µM] | AC50 [2] [µM] | AC50 [3] [µM] | AC50 [4] [µM] | AC50 [5] [µM] | AC50 [6] [µM] | AC50 [7] [µM] | AC50 [8] [µM] | AC50 [9] [µM] | AC50 [10] [µM] | AC50 [11] [µM] | AC50 [12] [µM] | AC50 [13] [µM] |
| --- | --- | --- | --- | --- | --- | --- | --- | --- | --- | --- | --- | --- | --- |
| CO/N=C(\C(=O)N[C@@H]1C(=O)N2C(C(=O)[O-])=C(C[N+]3(C)CCCC3)CS[C@H]12)c1csc(N)n1 | > 300 | > 300 | > 300 | > 300 | > 300 | > 300 | > 300 | > 300 | > 300 | > 300 | > 300 | > 300 | > 300 |
| COC(=O)N[C@H](C(=O)N1CCC[C@H]1c1nc(-c2ccc(-c3ccc(-c4c[nH]c([C@@H]5CCCN5C(=O)[C@@H](NC(=O)OC)C(C)C)n4)cc3)cc2)c[nH]1)C(C)C | > 30 | > 30 | > 30 | > 30 | > 30 | > 30 | > 30 | > 30 | > 30 | > 30 | > 30 | > 30 | > 30 |
| CCOC(=O)[C@H](CCc1ccccc1)N[C@@H](C)C(=O)N1CCC[C@H]1C(=O)O | > 30 | > 10 | > 10 | > 10 | > 10 | > 10 | > 10 | > 10 | > 10 | > 10 | > 10 | > 10 | > 30 |
| Nc1nc(N)c2nc(-c3ccccc3)c(N)nc2n1 | > 30 | > 30 | > 30 | > 30 | > 30 | > 30 | > 30 | > 30 | > 30 | > 30 | 24 | > 30 | > 30 |
| CC(N)Cc1ccccc1 (stereo not given) [AMPHETAMINE] | > 30 | > 30 | > 30 | > 30 | > 30 | > 30 | > 30 | – | > 30 | – | > 30 | > 30 | > 30 |
| CN1CCCC(n2nc(Cc3ccc(Cl)cc3)c3ccccc3c2=O)CC1 (stereo not given) [AZELASTINE] | > 30 | > 30 | 2.4 | 6.5 | > 30 | – | – | 4.7 | > 30 | > 30 | > 30 | > 30 | > 30 |
| COc1cc(Nc2c(C#N)cnc3cc(OCCCN4CCN(C)CC4)c(OC)cc23)c(Cl)cc1Cl [BOSUTINIB] | > 30 | > 30 | > 10 | 5.6 | > 10 | 7 | – | > 10 | – | – | > 30 | – | 18.1 |
| CN(C)CCCN1c2ccccc2CCc2ccc(Cl)cc21 [CLOMIPRAMINE] | – | – | > 30 | 0.3 | – | 0.53 | 5.6 | – | > 10 | – | – | > 10 | – |
| CC(=O)OCC(=O)[C@@]1(O)CC[C@H]2[C@@H]3CCC4=CC(=O)CC[C@]4(C)[C@H]3C(=O)C[C@@]21C [CORTISONE ACETATE] | – | – | > 30 | – | – | > 30 | > 30 | – | – | – | > 30 | > 30 | – |
| COc1cc2c(cc1OC)C(=O)C(CC1CCN(Cc3ccccc3)CC1)C2 (stereo not given) [DONEPEZIL] | > 30 | > 30 | > 30 | – | > 10 | > 30 | – | 6.1 | > 10 | > 10 | > 30 | – | > 30 |
| C#C[C@]1(O)CC[C@H]2[C@@H]3CCc4cc(O)ccc4[C@H]3CC[C@@]21C [ETHINYL ESTRADIOL] | > 30 | 16 | > 30 | > 10 | > 10 | > 30 | 18 | – | > 10 | > 10 | 16 | > 10 | > 30 |
| CC(C)NNC(=O)c1ccncc1 [IPRONIAZID] | > 30 | > 30 | > 30 | > 30 | > 30 | > 30 | > 30 | > 30 | > 30 | > 30 | > 30 | – | > 30 |
| Cc1cccc(C)c1OCC(C)N (stereo not given) [MEXILETINE] | > 30 | > 30 | – | – | > 30 | – | 8.5 | > 30 | > 30 | > 30 | > 30 | 18 | > 30 |
| CCc1nn(CCCN2CCN(c3cccc(Cl)c3)CC2)c(=O)n1CCOc1ccccc1 [NEFAZODONE] | 13.3 | > 10 | > 10 | 1.2 | > 10 | – | 1.1 | – | – | – | > 10 | > 10 | > 30 |
| O=C(NC[C@H]1CN(c2ccc(N3CCOCC3=O)cc2)C(=O)O1)c1ccc(Cl)s1 [RIVAROXABAN] | – | > 30 | > 30 | > 30 | – | > 30 | > 30 | > 30 | > 30 | > 30 | > 30 | > 30 | > 30 |
| CNC(=O)c1cc(Oc2ccc(NC(=O)Nc3ccc(Cl)c(C(F)(F)F)c3)cc2)ccn1 [SORAFENIB] | > 30 | > 30 | > 30 | > 30 | 2.8 | > 30 | – | > 30 | > 30 | > 30 | > 30 | 8.26 | 23.2 |
